The target of one assay is T1, monomeric P-selectin (Homo sapiens, UniProt P16109).
T1 construct: purchased Genzyme-Techne
T1 sequence (P16109 42-771 limits assumed): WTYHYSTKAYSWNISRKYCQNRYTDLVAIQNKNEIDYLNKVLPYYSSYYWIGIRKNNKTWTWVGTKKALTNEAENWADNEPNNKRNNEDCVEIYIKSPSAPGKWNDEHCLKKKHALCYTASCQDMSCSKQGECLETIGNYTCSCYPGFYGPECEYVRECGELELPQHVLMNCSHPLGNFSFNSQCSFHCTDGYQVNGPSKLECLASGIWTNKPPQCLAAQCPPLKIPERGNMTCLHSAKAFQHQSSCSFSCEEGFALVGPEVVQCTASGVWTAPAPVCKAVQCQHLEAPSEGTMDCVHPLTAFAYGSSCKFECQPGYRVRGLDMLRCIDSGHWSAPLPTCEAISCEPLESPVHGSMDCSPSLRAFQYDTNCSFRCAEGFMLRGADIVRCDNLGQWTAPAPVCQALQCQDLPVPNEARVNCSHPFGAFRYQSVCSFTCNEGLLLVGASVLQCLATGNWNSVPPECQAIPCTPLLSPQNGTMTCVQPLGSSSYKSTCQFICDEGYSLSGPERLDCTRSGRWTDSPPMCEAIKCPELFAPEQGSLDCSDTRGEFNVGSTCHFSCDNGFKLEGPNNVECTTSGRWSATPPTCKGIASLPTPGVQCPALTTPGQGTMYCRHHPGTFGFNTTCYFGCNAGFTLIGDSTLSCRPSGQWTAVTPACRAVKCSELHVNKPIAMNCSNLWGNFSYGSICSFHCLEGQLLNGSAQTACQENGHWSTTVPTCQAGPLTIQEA
Briefly: BIAcore surface plasmon resonance, immobilized glycosaminoglycan vs monomeric P-selectin. It is filed as binding. The following applies: for Kd / koff / kon: P-selectin, GAG immobilized, 25° C.; for interaction with immobilized glycosaminoglycan (sensorgram): monomeric P-selectin. The method, then: (§1) Affinity kinetics of the interaction between various CS/DS chains and each of L-selectin, P-selectin, CD44 and chemokine were examined by surface plasmon resonance using BIAcore™ biosensor [manufactured by BIAcore AB].
(§2) All experiments were performed at 25° C. At stages of washing and dissociation, buffer C (20 mM HEPES-NaOH, 0.15M NaCl, 1 mM CaCl2, 1 mM MgCl2, pH6.8) was used as a running buffer.
(§3) First, about 1.8 to 2.0 kiloresonance unit (1 kiloresonance unit=1 ng/mm^2) of streptavidin were covalently immobilized onto B1 sensor chip via a primary amine group using an amine coupling kit [manufactured by Amercham-Bioscience] according to the instruction provided by the manufacturer. The remaining activated groups were blocked with 150 μl of 1M ethanolamine-HCl (pH8.5). Then, each glycosaminoglycan which had been biotinylated at a reducing end was injected to a sensor tip surface by using EZ-link™ biotin-LC-hydrazide [manufactured by Pierce] so as to obtain about 150 resonance unit of an immobilization level, according to the method of Sadir et al. [J. Biol. Chem., 276, 8288-8296 (2001); all teachings of which are hereby incorporated by reference].
(§4) Binding assay was performed by injecting continuously each of various concentrations of secondary lymphoid tissue chemokine, γ-interferon inducible protein-10, stromal cell-derived factor-1β, monomeric L-selectin [manufactured by Genzyme-Techne], monomeric P-selectin [manufactured by Genzyme-Techne] and monomeric CD44, to a glycosaminoglycan-coupled sensor tip at a flow rate of 30 μl/min for 0 to 90 seconds, and then injecting a running buffer thereto. A response in resonance unit was recorded as a function of a time.
(§5) A sensor tip surface was regenerated with 300 μl of 1 M NaCl when chemokine or CD44 was used, or regenerated with 300 μl of 1 M NaCl, and additional 100 μl of 50 mM EDTA (pH8.0), when selectin was used. As a result of regeneration of a sensor tip surface, a remarkable change in a baseline was not observed.
(§6) An affinity kinetic parameter was determined by BIAevaluation 3.0 software [manufactured by Pharmacia Biosensor] using a single site binding model. […] In FIG. 6 and Table 3, SLC denotes secondary lymphoid tissue chemokin, IP-10 denotes γ-interferon inducible protein-10, SDF-1β denotes stromal cell-derived factor-1β, CS E denotes chondroitin sulfate E, and CS A denotes chondroitin sulfate A. In addition, in Table 3, Kd value for the interaction between monomeric CD44 and chondroitin sulfate E is a value calculated from a binding amount at equilibrium, and Kd value of the interaction between CD44 and hyaluronic acid is a value calculated using CD44-Ig.
(In general: In SPR one partner is held on a chip, and binding of the other changes the refractive index at the surface.)

Assay [1] concerns the target T2, stromal cell-derived factor-1β (Homo sapiens, UniProt P48061).
T2 construct: purchased Pepro Tech
Briefly: BIAcore surface plasmon resonance, immobilized glycosaminoglycan vs SDF-1β. It is filed as binding. Conditions: for Kd / koff / kon: GAG immobilized, 25° C. On the procedure: as §1, §2, §3, §4, §5, §6

The subject of the next assay is P-selectin-Ig. The assay can be described thus: ELISA, biotinylated versican binding to P-selectin-Ig in presence of glycosaminoglycan. The following applies: 100 μg/ml glycosaminoglycan; FIG. 5. On the procedure:
A well of a 96 well flat bottom microtiter plate was coated with BSA (5 μg/ml), anti-versican monoclonal antibody 2B1 (5 μg/ml), CD44-Ig (7 μg/ml), L-selectin-Ig (3 μg/ml), P-selectin-Ig (3 μg/ml) or chemokine (1 μg/ml), and then blocked with a phosphate buffered physiological saline containing 3% by weight of BSA. As the above chemokine, secondary lymphoid tissue chemokine, γ-interferon inducible protein-10, platelet factor 4, stromal cell-derived factor-1β [manufactured by Pepro Tech] and stromal cell-derived factor-1α [manufactured by Pepro Tech] were used.
Thereafter, the plate was washed with the buffer A, and enzyme-linked immunosorbent assay was performed in the same manner as that of the previous report [Kawashima, H. et al., J. Biol. Chem., 275, 35448-35456 (2000)]. Binding was determined by measuring absorbance at 620 nm using alkaline phosphatase-conjugated streptavidin and Blue Phos™ substrate. In FIG. 5, expression of an abscissa axis is the same as that of FIG. 4.

Assay [2] concerns secondary lymphoid tissue chemokine. Briefly: Ca2+ mobilization in L1.2/CCR7 cells stimulated with SLC. Conditions: glycosaminoglycan 100 μg/ml; L1.2/CCR7 cells loaded with Fura-2; FIG. 8. It is filed as cell-based. On the procedure:
i) applying Fura-2 to stimulate to L1.2/CCR7 cell (1×10^6 cells/ml) with secondary lymphoid tissue chemokine in the presence or absence of the therapeutic or prophylactic agent (100 μg/ml) of the present invention, and
ii) measuring a fluorescent rate to monitor an intracellular calcium concentration according to the description of Hirose, J. et al. [J. Biol. Chem., 276, 5228-5234 (2001); all teachings of which are hereby incorporated by reference].
L1.2/CCR7 cells (1×10^6 cells/ml) were loaded with Fura-2, and then stimulated with secondary lymphoid tissue chemokine (“SLC” in FIG. 8) or C-terminal truncated secondary lymphoid tissue chemokine (“SLC-T” in FIG. 8), in the presence or absence of glycosaminoglycan (100 μg/ml). The intracellular calcium concentration was monitored by measuring a fluorescent rate in the same manner as described in the previous report [Hirose, J. et al., J. Biol. Chem., 276, 5228-5234 (2001)]. Chondroitin sulfate E (“CS E” in FIG. 8) and chondoroitin sulfate A (“CS A” in FIG. 8) were used as the glycosaminoglycan. In FIG. 8, an arrowhead indicates a time point at which stimulation was given.

T2 sequence (P48061 22-93): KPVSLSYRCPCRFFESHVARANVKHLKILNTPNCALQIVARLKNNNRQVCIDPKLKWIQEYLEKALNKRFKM

As a reminder, the Kd is a measure of binding affinity in units of concentration. Read a low Kd as tighter binding. The koff is the first-order rate constant of dissociation. A higher koff goes with fast dissociation. Broadly, the kon is a measure of how fast the partners come together. Low readings indicate slow association, high ones fast association. On monomeric P-selectin, chondroitin polysulfate [CPS] gave a Kd of 56.8 nM, a koff of 0.000759 s⁻¹ and an on-rate constant (kon) of 13400 M⁻¹ s⁻¹. In assay [1], binding was characterised by a dissociation constant (Kd) of 86.3 nM, the koff came to 0.00304 s⁻¹ and the kon is 35200 M⁻¹ s⁻¹. The “inhibition of binding between biotinylated versican and P-selectin” value in the assay on P-selectin-Ig is recorded as “inhibited”. In addition, the “Ca^2+ mobilization by secondary lymphoid tissue chemokine pre-incubated with glycosaminoglycan” value (“Ca^2+ mobilization” below) in assay [2] is “did not induce”.

Consider chondroitin sulfate A [CS A], for which the “interaction with immobilized glycosaminoglycan (sensorgram)” value (“interaction” for short) (at monomeric P-selectin; in assay [1]) was “did not interact” throughout. Moreover, the “Ca^2+ mobilization” value in assay [2] was “remarkably induced”.

For the substance chondroitin sulfate E [CS E], at monomeric P-selectin, the equilibrium dissociation constant (Kd) was determined as 29.7 nM, the koff stood at 0.00125 s⁻¹, the on-rate (kon) was 42100 M⁻¹ s⁻¹ and the “interaction” value is “bound”. Also, in assay [1], the “interaction” value was “bound”; the affinity, expressed as Kd, was 293 nM; the koff came out at 0.0053 s⁻¹; the kon stood at 18100 M⁻¹ s⁻¹. For the same substance, the “inhibition of binding between biotinylated versican and P-selectin” value with P-selectin-Ig is “inhibited”. Also, the “Ca^2+ mobilization” value in assay [2] is given as “did not induce”.

For dermatan polysulfate [DPS], at monomeric P-selectin, the koff is 0.000664 s⁻¹ and the kon is 24000 M⁻¹ s⁻¹. For the same substance, the “inhibition of binding between biotinylated versican and P-selectin” value in the assay on P-selectin-Ig is “inhibited”. Further, the “Ca^2+ mobilization” value in assay [2] was “did not induce”.
